Results published in US9566312B2, “Cyclic peptides and use as medicines” (priority 2012, dated 2017).
Read-outs that look alike come from different tables or passages of the source. Starred links: 1 amine or outer side, 2 acyl side, 3 side chain; linkers in the order of their positions; H or OH if unused. Non-standard residues stand in square brackets, D forms with d. Residues, ends and D or L forms follow the SMILES beside them. X61 = C[C@@H]1CN(CCOC[C@@H](C)[C@@H](C(=O)[*:2])N(C)[*:1])[C@H](C)CO1; X74 = C[C@H](CCN1CCN2C(=O)OC[C@@H]2C1)[C@@H](C(=O)[*:2])N(C)[*:1]; X45 = C[C@H](CCC(=O)N1CC2CCC(C1)O2)[C@@H](C(=O)[*:2])N(C)[*:1]; X28 = CCN1CCN(C(=O)OC[C@H](C)[C@@H](C(=O)[*:2])N(C)[*:1])CC1; X34 = C[C@H](COC(=O)N1CCOCC1)[C@@H](C(=O)[*:2])N(C)[*:1]; X50 = C[C@H](CN1CCNC(=O)C1)[C@@H](C(=O)[*:2])N(C)[*:1]; X30 = C[C@H](CN1CCCOCC1)[C@@H](C(=O)[*:2])N(C)[*:1]; X76 = CO[C@H](CN1CCOCC1)[C@@H](C(=O)[*:2])N(C)[*:1]; MeBmt = C/C=C/C[C@@H](C)[C@@H](O)[C@H](NC)C(=O)O; NMeL = CN[C@@H](CC(C)C)C(=O)O; NMeV = CN[C@H](C(=O)O)C(C)C; dNMeA = CN[C@H](C)C(=O)O; Abu = CC[C@H](N)C(=O)O

Columns and labels:
[1] = target: cyclophilin A (CypA) (Homo sapiens (Human), UniProt P62937); assay: Inhibitor binding to cyclophilin proteins by SPR, CypA; parameters: unit not given here; conditions: 1:1 binding model;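 also: Single-cycle kinetics on a Biacore T200, compound injected at several concentrations for 1 min each at 50 µL/min, then 10 min dissociation, in HEPES pH 7.4 buffer with 3% DMSO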
[2] = target: cyclophilin B (CypB) (Homo sapiens (Human), UniProt P23284); assay: Inhibitor binding to cyclophilin proteins by SPR, CypB; parameters: unit not given here; conditions: 1:1 binding model
How it was run: (§1)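 A 1:1 model fitted to single-cycle kinetic SPR data gave association and dissociation rates and KD. Compound series injected for 1 min each at 50 μL/min, then 10 min dissociation. Running buffer HEPES pH 7.4 with NaCl, P20 and 3% DMSO; target protein was biotinylated avi-tagged cyclophilin on a CAPture surface.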

[3] = target: CypF (Homo sapiens (Human), UniProt P30405); assay: Inhibitor binding to cyclophilin proteins by SPR, CypF; conditions: 1:1 binding model
How it was run: as §1

[4] = tested on: genotype 1b subgenomic HCV replicon in Huh7.5 cells; type: cell-based, hepatitis C virus; conditions: read-out: RPLN-1b IC50
How it was run: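 Replicon inhibition read as renilla luciferase signal versus DMSO controls after 72 h incubation, in Huh7.5 cells harbouring a genotype 1b subgenomic replicon; medium phenol red-free DMEM lacking G418. CC50 determined in parallel via Cell Titer-Glo.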

[5] = tested on: peripheral blood mononuclear cells (PBMC); assay: Anti-proliferative or immunosuppressive activity, BrdU incorporation in PHA-stimulated PBMC; type: cell-based; conditions: PHA 3 μg/ml, 60 hour compound treatment; read-out: EMV PBMC IC50
How it was run: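 BrdU ELISA read-out of DNA synthesis in freshly isolated PBMCs (two donors, 30,000 cells/well, X-VIVO 15). T-cell proliferation triggered with phytohemagglutinin at 3 μg/ml.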

[6] = target: organic anion transporting polypeptide 1B1 (OATP1B1) (Homo sapiens (Human), UniProt Q9Y6L6); assay: OATP assay in CHO-OATP1B1 cells;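 also: inhibition of probe substrate uptake into the cells, ten minutes exposure, accumulated substrate read by fluorescence once cells were lysed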
[7] = genotype 1b replicon, 72 h incubation

organic anion transporting polypeptide 1B1 (OATP1B1), sequence (Q9Y6L6 whole entry): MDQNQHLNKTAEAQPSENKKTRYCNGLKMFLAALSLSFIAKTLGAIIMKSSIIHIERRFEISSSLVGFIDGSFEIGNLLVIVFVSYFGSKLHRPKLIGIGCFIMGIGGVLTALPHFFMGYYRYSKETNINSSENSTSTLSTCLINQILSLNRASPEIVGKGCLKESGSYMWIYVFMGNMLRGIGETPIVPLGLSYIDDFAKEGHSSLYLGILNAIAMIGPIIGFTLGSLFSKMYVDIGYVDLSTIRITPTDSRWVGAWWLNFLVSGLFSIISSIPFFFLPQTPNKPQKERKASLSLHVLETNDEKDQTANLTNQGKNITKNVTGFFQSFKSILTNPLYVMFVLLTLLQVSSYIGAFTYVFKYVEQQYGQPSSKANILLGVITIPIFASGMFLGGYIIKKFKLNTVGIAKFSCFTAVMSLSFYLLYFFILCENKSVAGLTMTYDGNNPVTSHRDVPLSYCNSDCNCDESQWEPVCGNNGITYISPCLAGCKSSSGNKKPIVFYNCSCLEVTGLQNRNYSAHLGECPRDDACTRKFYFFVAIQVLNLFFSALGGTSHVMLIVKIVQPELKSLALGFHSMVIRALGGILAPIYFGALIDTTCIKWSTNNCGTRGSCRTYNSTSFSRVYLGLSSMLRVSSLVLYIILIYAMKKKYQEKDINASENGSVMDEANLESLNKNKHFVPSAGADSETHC
CypF, sequence (P30405 30-207): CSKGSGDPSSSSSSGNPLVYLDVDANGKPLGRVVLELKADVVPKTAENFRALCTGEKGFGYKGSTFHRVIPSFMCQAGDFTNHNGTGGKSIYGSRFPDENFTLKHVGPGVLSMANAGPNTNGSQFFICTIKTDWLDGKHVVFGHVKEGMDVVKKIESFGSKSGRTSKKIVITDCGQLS
cyclophilin A (CypA), sequence (P62937 whole entry): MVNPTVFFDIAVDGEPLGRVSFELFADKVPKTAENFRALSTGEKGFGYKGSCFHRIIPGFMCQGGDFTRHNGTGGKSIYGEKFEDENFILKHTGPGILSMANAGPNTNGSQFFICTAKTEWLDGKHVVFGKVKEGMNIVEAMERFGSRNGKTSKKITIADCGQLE
cyclophilin B (CypB), sequence (P23284 34-216): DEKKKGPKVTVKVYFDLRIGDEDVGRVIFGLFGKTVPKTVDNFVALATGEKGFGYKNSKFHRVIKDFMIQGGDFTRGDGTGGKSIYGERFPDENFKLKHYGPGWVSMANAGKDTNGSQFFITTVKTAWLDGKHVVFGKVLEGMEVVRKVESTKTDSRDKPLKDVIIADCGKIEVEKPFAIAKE

SMILES | CypA Kd [1] | CypB Kd [2] | CypF Kd [3] [nM] | IC50 [4, 7] [nM] | IC50 [5] [nM] | IC50 [6] [nM] | IC50 [4] [nM]
C/C=C/C[C@@H](C)[C@@H](O)[C@H]1C(=O)N[C@@H](CC)C(=O)N(C)[C@H](C)C(=O)N(C)[C@@H]([C@H](C)CCN2CCN3C(=O)OC[C@@H]3C2)C(=O)N[C@@H](C(C)C)C(=O)N(C)[C@@H](CC(C)C)C(=O)N[C@@H](C)C(=O)N[C@H](C)C(=O)N(C)[C@@H](CC(C)C)C(=O)N(C)[C@@H](CC(C)C)C(=O)N(C)[C@@H](C(C)C)C(=O)N1C [Compound 2.18.9, 3-[D-Ala]-4-[(2S,3R)-3-methyl-2-(methylamino)-5-((S)-3-oxotetrahydro-1H-oxazolo[3,4-a]pyrazin-7(3H)-yl)pentanoyl]-cyclosporin] (cyclo(A[dA][NMeL][NMeL][NMeV][MeBmt][Abu][dNMeA][X74]V[NMeL])) | 1.8 | 2.7 | 1 | 170 | 9200 | 2800 | 
C/C=C/C[C@@H](C)[C@@H](O)[C@H]1C(=O)N[C@@H](CC)C(=O)N(C)[C@H](C)C(=O)N(C)[C@@H]([C@H](C)COCCN2C[C@@H](C)OC[C@H]2C)C(=O)N[C@@H](C(C)C)C(=O)N(C)[C@@H](CC(C)C)C(=O)N[C@@H](C)C(=O)N[C@H](C)C(=O)N(C)[C@@H](CC(C)C)C(=O)N(C)[C@@H](CC(C)C)C(=O)N(C)[C@@H](C(C)C)C(=O)N1C [Compound 2.8.4, 3-[D-Ala]-4-[(2S,3S)-4-(2-((2R,5R)-2,5-dimethylmorpholino)ethoxy)-3-methyl-2-(methylamino)butanoyl]-cyclosporin] (cyclo(A[dA][NMeL][NMeL][NMeV][MeBmt][Abu][dNMeA][X61]V[NMeL])) | 0.9 | 0.7 | 0.7 | 45 | 10700 | 3600 | 
C/C=C/C[C@@H](C)[C@@H](O)[C@H]1C(=O)N[C@@H](CC)C(=O)N(C)[C@H](C)C(=O)N(C)[C@@H]([C@H](C)CN2CCCOCC2)C(=O)N[C@@H](C(C)C)C(=O)N(C)[C@@H](CC(C)C)C(=O)N[C@@H](C)C(=O)N[C@H](C)C(=O)N(C)[C@@H](CC(C)C)C(=O)N(C)[C@@H](CC(C)C)C(=O)N(C)[C@@H](C(C)C)C(=O)N1C [Compound 2.5.21, 3-[D-Ala]-4-[(2S,3R)-3-methyl-2-(methylamino)-4-(1,4-oxazepan-4-yl)butanoyl]-cyclosporin] (cyclo(A[dA][NMeL][NMeL][NMeV][MeBmt][Abu][dNMeA][X30]V[NMeL])) | 1.9 | 0.9 | 0.8 | 37 | 4500 | 1700 | 
C/C=C/C[C@@H](C)[C@@H](O)[C@H]1C(=O)N[C@@H](CC)C(=O)N(C)[C@H](C)C(=O)N(C)[C@@H]([C@H](C)COC(=O)N2CCOCC2)C(=O)N[C@@H](C(C)C)C(=O)N(C)[C@@H](CC(C)C)C(=O)N[C@@H](C)C(=O)N[C@H](C)C(=O)N(C)[C@@H](CC(C)C)C(=O)N(C)[C@@H](CC(C)C)C(=O)N(C)[C@@H](C(C)C)C(=O)N1C [Compound 2.5.7, 3-[D-Ala]-4-[(2S,3S)-3-methyl-2-(methylamino)-4-((morpholine-4-carbonyl)oxy)butanoyl]-cyclosporin] (cyclo([MeBmt][Abu][dNMeA][X34]V[NMeL]A[dA][NMeL][NMeL][NMeV])) | 2.1 | 1.3 | 1.5 |  | 19300 | 2300 | 48
C/C=C/C[C@@H](C)[C@@H](O)[C@H]1C(=O)N[C@@H](CC)C(=O)N(C)[C@H](C)C(=O)N(C)[C@@H]([C@H](C)CN2CCNC(=O)C2)C(=O)N[C@@H](C(C)C)C(=O)N(C)[C@@H](CC(C)C)C(=O)N[C@@H](C)C(=O)N[C@H](C)C(=O)N(C)[C@@H](CC(C)C)C(=O)N(C)[C@@H](CC(C)C)C(=O)N(C)[C@@H](C(C)C)C(=O)N1C [Compound 2.5.30, 3-[D-Ala]-4-[(2S,3R)-3-methyl-2-(methylamino)-4-(3-oxopiperazin-1-yl)butanoyl]-cyclosporin] (cyclo(A[dA][NMeL][NMeL][NMeV][MeBmt][Abu][dNMeA][X50]V[NMeL])) | 1.7 | 1.0 | 1.1 | 204 | 34100 | 2100 | 
C/C=C/C[C@@H](C)[C@@H](O)[C@H]1C(=O)N[C@@H](CC)C(=O)N(C)[C@H](C)C(=O)N(C)[C@@H]([C@@H](CN2CCOCC2)OC)C(=O)N[C@@H](C(C)C)C(=O)N(C)[C@@H](CC(C)C)C(=O)N[C@@H](C)C(=O)N[C@H](C)C(=O)N(C)[C@@H](CC(C)C)C(=O)N(C)[C@@H](CC(C)C)C(=O)N(C)[C@@H](C(C)C)C(=O)N1C [Compound 2.21.1, 3-[D-Ala]-4-[(2S,3R)-3-methoxy-2-(methylamino)-4-morpholinobutanoyl]-cyclosporin] (cyclo(A[dA][NMeL][NMeL][NMeV][MeBmt][Abu][dNMeA][X76]V[NMeL])) | 2.8 | 1.2 | 1.2 |  | 15700 | 900 | 23
C/C=C/C[C@@H](C)[C@@H](O)[C@H]1C(=O)N[C@@H](CC)C(=O)N(C)[C@H](C)C(=O)N(C)[C@@H]([C@@H](C)COC(=O)N2CCN(CC)CC2)C(=O)N[C@@H](C(C)C)C(=O)N(C)[C@@H](CC(C)C)C(=O)N[C@@H](C)C(=O)N[C@H](C)C(=O)N(C)[C@@H](CC(C)C)C(=O)N(C)[C@@H](CC(C)C)C(=O)N(C)[C@@H](C(C)C)C(=O)N1C [Compound 2.17.14, 3-[D-Ala]-4-[(2S,3R)-4-((4-ethylpiperazine-1-carbonyl)oxy)-3-methyl-2-(methylamino)butanoyl]-cyclosporin] (cyclo(A[dA][NMeL][NMeL][NMeV][MeBmt][Abu][dNMeA][X28]V[NMeL])) | 0.5 | 0.4 | 0.5 | 57 | 8100 | 2200 | 
C/C=C/C[C@@H](C)[C@@H](O)[C@H]1C(=O)N[C@@H](CC)C(=O)N(C)[C@H](C)C(=O)N(C)[C@@H]([C@H](C)CCC(=O)N2CC3CCC(C2)O3)C(=O)N[C@@H](C(C)C)C(=O)N(C)[C@@H](CC(C)C)C(=O)N[C@@H](C)C(=O)N[C@H](C)C(=O)N(C)[C@@H](CC(C)C)C(=O)N(C)[C@@H](CC(C)C)C(=O)N(C)[C@@H](C(C)C)C(=O)N1C [Compound 2.14.2, 3-[D-Ala]-4-[(2S,3R)-6-(8-oxa-3-azabicyclo[3.2.1]octan-3-yl)-3-methyl-2-(methylamino)-6-oxohexanoyl]-cyclosporin] (cyclo(A[dA][NMeL][NMeL][NMeV][MeBmt][Abu][dNMeA][X45]V[NMeL])) | 2.4 | 0.9 | 1 | 75 | 6700 | 1900 | 
C/C=C/C[C@@H](C)[C@@H](O)[C@H]1C(=O)N[C@@H](CC)C(=O)N(C)[C@H](CCCO)C(=O)N(C)[C@@H]([C@H](C)CS(C)(=O)=O)C(=O)N[C@@H](C(C)C)C(=O)N(C)[C@@H](CC(C)C)C(=O)N[C@@H](C)C(=O)N[C@H](C)C(=O)N(C)[C@@H](CC(C)C)C(=O)N(C)[C@@H](CC(C)C)C(=O)N(C)[C@@H](C(C)C)C(=O)N1C (stereo in doubt) [Compound 3.4.1, 3-[(R)-5-hydroxy-2-(methylamino)pentanoyl]-4-[(2S,3S)-3-methyl-2-(methylamino)-4-(methylsulfonyl)butanoyl]-cyclosporin] | 7.0 | 2.8 | 3.8 | 4500 | 5800 | 2700 | 
